Source: ChEMBL document CHEMBL3603813, “Quinoline-based antimalarial hybrid compounds” (Bioorg Med Chem, 2015)
pIC50: −log10 of the molar value.

Legend:
[1] = system: Plasmodium berghei; assay: Antimalarial activity against Plasmodium berghei infected in mouse assessed as reduction in parasitemia at 44 to 46 mg/kg, po; assay type: functional
[2] = system: Plasmodium falciparum; assay: Antiplasmodial activity against CQ-resistant Plasmodium falciparum K1; assay type: functional, organism-based
[3] = system: Plasmodium falciparum; assay: Antiplasmodial activity against CQ-sensitive Plasmodium falciparum D10; assay type: functional, organism-based
[4] = system: Plasmodium falciparum; assay: Antiplasmodial activity against CQ-sensitive Plasmodium falciparum D6; assay type: functional
[5] = system: Plasmodium falciparum; assay: Antiplasmodial activity against CQ-resistant Plasmodium falciparum 7G8; assay type: functional
[6] = system: Plasmodium falciparum; assay: Antiplasmodial activity against CQ-resistant Plasmodium falciparum Dd2; assay type: functional, organism-based; conditions: for pIC50: Plasmodium falciparum, Dd2
[7] = system: Plasmodium falciparum; assay: Antiplasmodial activity against CQ-sensitive Plasmodium falciparum 3D7; assay type: functional, organism-based; conditions: for pIC50: Plasmodium falciparum, 3D7
[8] = system: Plasmodium berghei; assay: Antimalarial activity against Plasmodium berghei infected in mouse assessed as inhibition of parasite multiplication at 5 mg/kg/day administered for 4 days measured after 7 days; assay type: functional
[9] = system: Plasmodium falciparum; assay: Antiplasmodial activity against CQ-resistant Plasmodium falciparum W2 assessed as inhibition of parasite growth; assay type: functional, organism-based
[10] = Inhibition of beta-hematin formation; assay type: physicochemical
[11] = system: Plasmodium falciparum; assay: Antiplasmodial activity against CQ-resistant Plasmodium falciparum FCR3; assay type: functional, organism-based
[12] = system: Plasmodium berghei; assay: Antimalarial activity against Plasmodium berghei infected in human HuH7 cells assessed as inhibition of liver cell infection; assay type: functional, organism-based; conditions: Huh-7, Liver
[13] = system: Plasmodium falciparum; assay: Antiplasmodial activity against CQ-resistant Plasmodium falciparum FcB1; assay type: functional
[14] = system: Plasmodium falciparum; assay: Antiplasmodial activity against CQ-resistant Plasmodium falciparum FcM29; assay type: functional

In the case of `Clc1ccc2c(NCCN3CCC(NC(c4ccccn4)c4ccccn4)CC3)ccnc2c1`, the “inhibition (INH)” value [1] was over 99.9%.

`C[C@H]1[C@@H](OCc2ccc(C(=O)N(CCNc3ccnc4cc(Cl)ccc34)CC(=O)NC3CCCCC3)cc2)O[C@@H]2O[C@@]3(C)CC[C@H]4[C@H](C)CC[C@@H]1[C@@]24OO3` showed a pIC50 [2] of 7.72 and a pIC50 [3] of 7.59.

For `Clc1ccc2c(NCCCN3CCN(C4C5CC6CC(C5)CC4C6)CC3)ccnc2c1` (stereo not given), the Activity [4] was 0.5 nM, the Activity [5] was 2 nM and the Activity [6] was 1 nM.

`CN(C)c1ccc(C(=O)N[C@@H](CCCCCC(=O)NO)C(=O)Nc2cccc3cccnc23)cc1` gave a pIC50 [6] of 7.48 and a pIC50 [7] of 7.89.

`Clc1ccc2c(Sc3ncnc4[nH]cnc34)ccnc2c1` gave an inhibition in vivo at 5 mg/kg/day [8] of 70%.

For `Clc1ccc2c(NCCN3CCN(C(c4ccccc4)c4ccccc4)CC3)ccnc2c1`, the Activity [4] was 0.5 nM, the Activity [5] was 2 nM and the Activity [6] was 1 nM.

Compound `CCCN1CNc2cc(Nc3ccnc4cc(Cl)ccc34)ccc2C1` has a pIC50 [9] of 6.89 and a pIC50 [2] of 6.66.

Work on `O=C(N[C@H](c1ccccc1)[C@H](O)C(=O)NCc1cn(-c2ccccc2Nc2ccnc3cc(Cl)ccc23)nn1)c1ccccc1` yielded a pIC50 [9] of 6.55 and a pIC50 [2] of 6.41.

For `O=C(/C=C/c1ccccc1)N[C@@H](CCCCCC(=O)NO)C(=O)Nc1cccc2cccnc12`, the pIC50 [6] was 7.48 and the pIC50 [7] was 7.89.

With `CN(C)c1ccc(/C=C/C(=O)c2cccc(Nc3ccnc4cc(Cl)ccc34)c2)cc1` the “inhibition (INH)” value [10] was 94%.

In the case of `O=C(/C=C/c1ccccc1Cl)c1cccc(Nc2ccnc3cc(Cl)ccc23)c1`, the “inhibition (INH)” value [10] was 94%.

`C[C@H]1[C@@H](OCc2ccc(C(=O)N(CCNc3ccnc4cc(Cl)ccc34)CC(=O)NC(C)(C)C)cc2)O[C@@H]2O[C@@]3(C)CC[C@H]4[C@H](C)CC[C@@H]1[C@@]24OO3` showed a pIC50 [2] of 7.72 and a pIC50 [3] of 7.59.

Work on `CCc1c(O)c(=O)ccn1CCCNc1ccnc2cc(Cl)ccc12` yielded a pIC50 [7] of over 6.00.

Compound `O=C(CS(=O)(=O)N1CCN(c2ccnc3cc(Cl)ccc23)CC1)Nc1ccccc1` has a pIC50 [11] of 5.92.

For `C=C[C@H]1CN2CC[C@H]1C[C@H]2[C@H](OC(=O)C(C)NC(=O)c1cn(CC)c2ncccc2c1=O)c1ccnc2ccc(OC)cc12` (stereo not given in full), the pIC50 [7] was 7.80.

`CCN1CNc2cc(Nc3ccnc4cc(Cl)ccc34)ccc2C1` showed a pIC50 [9] of 6.89 and a pIC50 [2] of 6.66.

Work on `O=C(N[C@H](c1ccccc1)[C@H](O)C(=O)NCc1cn(-c2cccc(Nc3ccnc4cc(Cl)ccc34)c2)nn1)c1ccccc1` yielded a pIC50 [9] of 6.55 and a pIC50 [2] of 6.41.

With `O=C(/C=C/c1ccccc1)c1cccc(Nc2ccnc3cc(Cl)ccc23)c1` the “inhibition (INH)” value [10] was 94%.

Work on `Clc1ccc2c(NCCCN3CCN(CC(c4ccccc4)c4ccccc4)CC3)ccnc2c1` yielded an Activity [4] of 0.5 nM, an Activity [5] of 2 nM and an Activity [6] of 1 nM.

For `COc1cc(NC(C)CCCN)c2ncccc2c1` (stereo not given) [PRIMAQUINE], the pIC50 [12] was 5.12.

In the case of `Cc1c(O)c(=O)ccn1CCCCNc1ccnc2cc(Cl)ccc12`, the pIC50 [7] was over 6.00.

Compound `C[C@H]1[C@@H](OCC[N+]2(CCO[C@H]3O[C@@H]4O[C@@]5(C)CC[C@H]6[C@H](C)CC[C@@H]([C@H]3C)[C@@]46OO5)CCN(CCNc3ccnc4cc(Cl)ccc34)CC2)O[C@@H]2O[C@@]3(C)CC[C@H]4[C@H](C)CC[C@@H]1[C@@]24OO3` has an Activity [7] of 30 nM.

With `Cc1c(O)c(=O)ccn1CCCCCCNc1ccnc2cc(Cl)ccc12` the pIC50 [7] was 8.40.

Compound `Clc1ccc2c(NCCCCN3CCN(C(c4ccccc4)c4ccccc4)CC3)ccnc2c1` has an Activity [4] of 0.5 nM, an Activity [5] of 2 nM and an Activity [6] of 1 nM.

In the case of `C[C@H]1[C@@H](OCCN(CCCNc2ccnc3cc(Cl)ccc23)CCO[C@H]2O[C@@H]3O[C@@]4(C)CC[C@H]5[C@H](C)CC[C@@H]([C@H]2C)[C@@]35OO4)O[C@@H]2O[C@@]3(C)CC[C@H]4[C@H](C)CC[C@@H]1[C@@]24OO3`, the Activity [7] was 9 nM.

With `CCc1c(O)c(=O)ccn1CCCCCCNc1ccnc2cc(Cl)ccc12` the pIC50 [7] was over 6.00.

For `Clc1ccc2c(NCCCN3CCC(NC(c4ccccn4)c4ccccn4)CC3)ccnc2c1` [DM-1157], the “inhibition (INH)” value [1] was over 99.9%.

Compound `COc1cc(NC(C)CCCNCC2CCC3(CC2)OOC2(OO3)C3CC4CC(C3)CC2C4)c2ncccc2c1` (stereo not given) has a pIC50 [9] of 7.68 and a pIC50 [12] of 6.48.

Compound `COc1cc(/C=C2\SC(=S)N(CCCCNc3ccnc4cc(Cl)ccc34)C2=O)cc(OC)c1OC` has a pIC50 [7] of over 7.00.

In the case of `CCN(CC)CCCC(C)Nc1ccnc2cc(Cl)ccc12` (stereo not given) [CHLOROQUINE], the Activity [4] was 7 nM, the Activity [13] was 145 nM and the “inhibition (INH)” value [10] was 94%. The Activity [14] was 735 nM and the Activity [6] was 102 nM.

In the case of `C[C@@H]1CC[C@H]2[C@@H](C)C(=O)O[C@@H]3O[C@@]4(C)CC[C@@H]1[C@]32OO4` [ARTEMISININ], the Activity [13] was 10 nM and the Activity [14] was 18 nM.

In the case of `O=C(/C=C/c1cccc(F)c1)c1cccc(Nc2ccnc3cc(Cl)ccc23)c1`, the “inhibition (INH)” value [10] was 94%.

Work on `O=C(N[C@H](c1ccccc1)[C@H](O)C(=O)NCc1cn(CCNc2ccnc3cc(Cl)ccc23)nn1)c1ccccc1` yielded a pIC50 [9] of 6.55 and a pIC50 [2] of 6.41.

With `O=C(N[C@H](c1ccccc1)[C@H](O)C(=O)NCc1cn(CNc2ccnc3cc(Cl)ccc23)nn1)c1ccccc1` the pIC50 [9] was 6.55 and the pIC50 [2] was 6.41.

For `COc1cc(NC(C)CCCNC(=O)CC2CCC3(CC2)OOC2(OO3)C3CC4CC(C3)CC2C4)c2ncccc2c1` (stereo not given), the pIC50 [9] was 7.68 and the pIC50 [12] was 6.48.

`CCc1c(OCc2ccccc2)c(=O)ccn1CCCCCCNc1ccnc2cc(Cl)ccc12` showed a pIC50 [7] of over 6.00.

For `Clc1ccc2c(NCCCN3CCN(C(c4ccccc4)c4ccccc4)CC3)ccnc2c1`, the Activity [4] was 0.5 nM, the Activity [5] was 2 nM and the Activity [6] was 1 nM.

`Clc1ccc2c(Nc3ccc4c(c3)NCN(Cc3ccccc3)C4)ccnc2c1` gave a pIC50 [9] of 6.89 and a pIC50 [2] of 6.66.

With `O=[N+]([O-])c1ccccc1S(=O)(=O)N1CCN(c2ccnc3cc(Cl)ccc23)CC1` the pIC50 [11] was 5.92.

In the case of `O=C(/C=C/c1ccc(Cl)cc1)c1cccc(Nc2ccnc3cc(Cl)ccc23)c1`, the “inhibition (INH)” value [10] was 94%.

Compound `COc1c(C)n(CCCCCCNc2ccnc3cc(Cl)ccc23)ccc1=O` has a pIC50 [7] of over 6.00.

`CCCS(=O)(=O)N1CCN(c2ccnc3cc(Cl)ccc23)CC1` showed a pIC50 [11] of 5.92.

With `C=C[C@H]1CN2CC[C@H]1C[C@H]2[C@H](OC(=O)CNC(=O)c1cn2c3c(c(N4CCN(C)CC4)c(F)cc3c1=O)CC[C@H]2C)c1ccnc2ccc(OC)cc12` the pIC50 [7] was 7.92.

For `O=C1/C(=C/c2ccc([N+](=O)[O-])cc2)SC(=S)N1CCCNc1ccnc2cc(Cl)ccc12`, the pIC50 [7] was over 7.00.

In the case of `C[C@H]1[C@@H](OCc2cccc(C(=O)N(CCCCNc3ccnc4cc(Cl)ccc34)CC(=O)NC3CCCCC3)c2)O[C@@H]2O[C@@]3(C)CC[C@H]4[C@H](C)CC[C@@H]1[C@@]24OO3`, the pIC50 [2] was 7.72 and the pIC50 [3] was 7.59.

In the case of `COc1cc(NC(C)CCCNC(=O)C2CCC3(CC2)OOC2(OO3)C3CC4CC(C3)CC2C4)c2ncccc2c1` (stereo not given), the pIC50 [12] was 6.48.
